Measurements as given in patent US20050261298A1, “Methods of treating conditions associated with an Edg-7 receptor” (priority 2002, published 2005).

Experiments:
Edg-1 = biological target: T1, Edg-1 (Homo sapiens, UniProt P21453); test: Calcium mobilization assay (FLIPR), inhibition of S1P-stimulated calcium increase; type: cell-based; conditions: HTC cells expressing Edg-1
T1 construct: expressed in transfected cells; host or cells: HTC rat hepatoma cells

Edg-3 = biological target: T2, Edg-3 (Homo sapiens, UniProt Q99500); test: as above; type: cell-based; conditions: HTC cells expressing Edg-3
T2 construct: expressed in transfected cells; host or cells: HTC rat hepatoma cells

Edg-4 = Edg-4 (Homo sapiens, UniProt Q9HBW0); test: Calcium mobilization assay (FLIPR), inhibition of LPA-stimulated calcium increase; type: cell-based; conditions: HTC cells expressing Edg-4
Edg-5 = biological target: T3, Edg-5 (Homo sapiens, UniProt O95136); test: Calcium mobilization assay (FLIPR), inhibition of S1P-stimulated calcium increase; type: cell-based; conditions: HTC cells expressing Edg-5
T3 construct: expressed in transfected cells; host or cells: HTC rat hepatoma cells

Edg-6 = biological target: T4, Edg-6 (Homo sapiens, UniProt O95977); test: as above; type: cell-based; conditions: HTC cells expressing Edg-6
T4 construct: expressed in transfected cells; host or cells: HTC rat hepatoma cells
T4 sequence (O95977 1-384): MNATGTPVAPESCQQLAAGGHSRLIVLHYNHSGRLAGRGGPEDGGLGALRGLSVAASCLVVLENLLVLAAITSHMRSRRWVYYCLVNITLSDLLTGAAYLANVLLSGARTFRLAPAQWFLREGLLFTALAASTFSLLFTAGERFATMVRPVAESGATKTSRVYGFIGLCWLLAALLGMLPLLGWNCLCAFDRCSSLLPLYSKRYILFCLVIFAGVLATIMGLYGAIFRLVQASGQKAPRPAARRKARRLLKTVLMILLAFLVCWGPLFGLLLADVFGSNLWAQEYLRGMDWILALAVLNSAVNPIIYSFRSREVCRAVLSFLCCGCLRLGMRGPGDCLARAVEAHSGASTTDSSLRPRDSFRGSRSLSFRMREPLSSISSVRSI

Edg-8 = biological target: T5, Edg-8 (Homo sapiens, UniProt Q9H228); test: as above; type: cell-based; conditions: HTC cells expressing Edg-8
T5 construct: expressed in transfected cells; host or cells: HTC rat hepatoma cells

[1] = test system: Adrenergic α1, Non-Selective; test: Radioligand binding assay, 3H Prazosin; set-up: species or system Wistar Rat; conditions: significance criteria ≧50% of max stimulation or inhibition
Protocol: (§1) In order to test the selectivity of compounds, various enzyme assays as well as radioligand binding assays were performed using numerous non-Edg receptor targets as listed below.
(§2) A radioligand binding assay was performed using adrenergic α1 according to the method of Greengrass and Bremner 1979, Eur. J. Pharmacol. 55:323-326. A radioligand binding assay was performed using adrenergic α2 according to the method of Boyajian and Leslie, 1987, J. Pharmacol. Exp. Ther. 241:1092-1098. A radioligand binding assay was performed using adrenergic β according to the method of Feve et al., 1994, Proc. Natl. Acad. Sci. USA 91:5677-5681. A radioligand binding assay was performed using angiotensin AT2 according to the method of Whitebread et al., 1991, Biochem. Biophys. Res. Comm. 181:1365-1371. A radioligand binding assay was performed using calcium channel Type L, dihydropyridine according to the method of Ehlert et al., 1982, Life Sci. 30:2191-2202. A radioligand binding assay was performed using dopamine D2L according to the method of Bunzo et al., 1988, Nature 336:783-787. A radioligand binding assay was performed using endothelin ETA according to the method of Mihara et al., 1994, J. Pharmacol. Exp Ther. 268:1122-1127. A radioligand binding assay was performed using histamine H1 Central according to the method of Hill et al., 1978, J. Neurochem. 31:997-1004. […]

Adrenergic α2 = test: Radioligand binding assay, 3H Rauwolscine; set-up: species or system Wistar rat; conditions: significance criteria ≧50% of max stimulation or inhibition
Protocol: as §1, §2

Adrenergic β = test: Radioligand binding assay, 3H Dihydroaplenolol; set-up: species or system Wistar rat; conditions: significance criteria ≧50% of max stimulation or inhibition
Protocol: as §1, §2

[2] = test system: Calcium Channel Type L, Dihydropyridine; test: Radioligand binding assay, 3H Nitrendipine; set-up: species or system Wistar Rat; conditions: significance criteria ≧50% of max stimulation or inhibition
Protocol: as §1, §2

Dopamine D2L = biological target: T6, Dopamine D2L (Homo sapiens, UniProt P14416); test: Radioligand binding assay, 3H Spiperone; conditions: significance criteria ≧50% of max stimulation or inhibition
T6 construct: expressed in transfected cells; host or cells: CHO cells
Protocol: as §1, §2

Endothelin ETA = biological target: T7, Endothelin ETA (Homo sapiens, UniProt P25101); test: Radioligand binding assay, 125I Endothelin; conditions: significance criteria ≧50% of max stimulation or inhibition
T7 construct: expressed in transfected cells; host or cells: CHO cells
T7 sequence (P25101 21-427): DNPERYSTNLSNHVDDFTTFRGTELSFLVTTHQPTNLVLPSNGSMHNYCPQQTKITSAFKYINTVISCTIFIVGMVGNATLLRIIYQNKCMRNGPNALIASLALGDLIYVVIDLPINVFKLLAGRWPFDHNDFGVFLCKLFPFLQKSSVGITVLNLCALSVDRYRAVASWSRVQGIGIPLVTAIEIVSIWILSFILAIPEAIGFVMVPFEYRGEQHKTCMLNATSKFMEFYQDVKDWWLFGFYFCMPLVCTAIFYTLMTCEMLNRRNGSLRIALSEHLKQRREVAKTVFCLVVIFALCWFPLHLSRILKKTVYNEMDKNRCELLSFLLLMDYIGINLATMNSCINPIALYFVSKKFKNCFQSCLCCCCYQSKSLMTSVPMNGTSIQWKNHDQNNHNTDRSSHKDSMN
Protocol: as §1, §2

Histamine H1, Central = biological target: T8, Histamine H1, Central (Cavia porcellus, UniProt P31389); test: Radioligand binding assay, 3H Pyrilamine; set-up: species or system Guinea pig; conditions: significance criteria ≧50% of max stimulation or inhibition
T8 construct: Source: Guinea pig cerebellum; from tissue; host or cells: guinea pig cerebellum
Protocol: as §1, §2

[3] = test system: Muscarinic Non-Selective, Central; test: Radioligand binding assay, 3H Quinuclidinyl benzilate; set-up: species or system Wistar rat; conditions: significance criteria ≧50% of max stimulation or inhibition
Protocol: as §1, §2

[4] = concentrations as high as 20 µM

Sequence of Edg-4 (Q9HBW0 1-344 limits assumed): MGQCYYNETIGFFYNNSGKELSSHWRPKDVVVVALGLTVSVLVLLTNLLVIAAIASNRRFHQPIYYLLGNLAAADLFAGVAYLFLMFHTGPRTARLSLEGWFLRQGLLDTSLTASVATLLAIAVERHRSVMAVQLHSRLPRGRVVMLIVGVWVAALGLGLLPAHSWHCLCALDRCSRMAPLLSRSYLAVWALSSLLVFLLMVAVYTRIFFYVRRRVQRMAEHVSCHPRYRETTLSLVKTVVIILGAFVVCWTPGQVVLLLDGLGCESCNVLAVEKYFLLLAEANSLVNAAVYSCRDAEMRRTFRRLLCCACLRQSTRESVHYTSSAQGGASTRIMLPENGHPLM
T2 sequence (Q99500 whole entry): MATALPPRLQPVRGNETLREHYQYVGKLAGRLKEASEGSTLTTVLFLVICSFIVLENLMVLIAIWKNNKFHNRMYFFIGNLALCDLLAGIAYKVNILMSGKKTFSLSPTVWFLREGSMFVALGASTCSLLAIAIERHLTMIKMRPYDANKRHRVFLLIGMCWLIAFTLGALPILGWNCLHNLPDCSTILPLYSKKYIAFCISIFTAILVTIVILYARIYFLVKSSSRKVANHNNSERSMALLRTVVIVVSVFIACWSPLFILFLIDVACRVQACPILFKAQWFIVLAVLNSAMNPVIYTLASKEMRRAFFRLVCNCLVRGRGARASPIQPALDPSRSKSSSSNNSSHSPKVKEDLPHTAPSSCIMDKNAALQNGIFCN
T3 sequence (O95136 whole entry): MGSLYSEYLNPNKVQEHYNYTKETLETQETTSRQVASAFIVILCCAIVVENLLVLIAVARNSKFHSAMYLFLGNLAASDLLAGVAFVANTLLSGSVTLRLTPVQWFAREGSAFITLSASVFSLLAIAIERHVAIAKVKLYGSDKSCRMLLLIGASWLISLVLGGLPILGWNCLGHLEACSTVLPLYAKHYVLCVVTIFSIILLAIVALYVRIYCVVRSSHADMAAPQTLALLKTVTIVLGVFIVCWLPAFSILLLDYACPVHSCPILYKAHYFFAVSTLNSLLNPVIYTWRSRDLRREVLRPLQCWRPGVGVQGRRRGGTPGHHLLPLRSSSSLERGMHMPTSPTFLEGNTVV
T1 sequence (P21453 whole entry): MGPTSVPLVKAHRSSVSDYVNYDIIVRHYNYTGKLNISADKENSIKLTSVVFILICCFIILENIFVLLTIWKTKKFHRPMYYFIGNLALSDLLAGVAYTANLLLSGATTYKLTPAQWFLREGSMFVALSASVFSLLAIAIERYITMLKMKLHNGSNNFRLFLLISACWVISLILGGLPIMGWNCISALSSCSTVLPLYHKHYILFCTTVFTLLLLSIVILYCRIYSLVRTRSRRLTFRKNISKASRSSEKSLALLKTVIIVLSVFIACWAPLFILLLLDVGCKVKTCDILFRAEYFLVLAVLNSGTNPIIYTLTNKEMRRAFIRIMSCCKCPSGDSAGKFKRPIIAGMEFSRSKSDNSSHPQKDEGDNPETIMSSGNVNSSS
T5 sequence (Q9H228 whole entry): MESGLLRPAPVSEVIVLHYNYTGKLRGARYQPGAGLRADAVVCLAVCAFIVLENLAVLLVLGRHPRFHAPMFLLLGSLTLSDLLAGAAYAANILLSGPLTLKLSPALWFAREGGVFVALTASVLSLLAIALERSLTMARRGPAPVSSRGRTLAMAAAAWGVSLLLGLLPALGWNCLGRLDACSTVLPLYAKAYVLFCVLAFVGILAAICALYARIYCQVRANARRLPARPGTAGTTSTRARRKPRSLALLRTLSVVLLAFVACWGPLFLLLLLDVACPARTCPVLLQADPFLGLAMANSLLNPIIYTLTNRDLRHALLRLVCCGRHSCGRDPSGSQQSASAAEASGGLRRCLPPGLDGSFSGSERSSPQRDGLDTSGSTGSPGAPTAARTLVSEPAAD
T6 sequence (P14416 whole entry): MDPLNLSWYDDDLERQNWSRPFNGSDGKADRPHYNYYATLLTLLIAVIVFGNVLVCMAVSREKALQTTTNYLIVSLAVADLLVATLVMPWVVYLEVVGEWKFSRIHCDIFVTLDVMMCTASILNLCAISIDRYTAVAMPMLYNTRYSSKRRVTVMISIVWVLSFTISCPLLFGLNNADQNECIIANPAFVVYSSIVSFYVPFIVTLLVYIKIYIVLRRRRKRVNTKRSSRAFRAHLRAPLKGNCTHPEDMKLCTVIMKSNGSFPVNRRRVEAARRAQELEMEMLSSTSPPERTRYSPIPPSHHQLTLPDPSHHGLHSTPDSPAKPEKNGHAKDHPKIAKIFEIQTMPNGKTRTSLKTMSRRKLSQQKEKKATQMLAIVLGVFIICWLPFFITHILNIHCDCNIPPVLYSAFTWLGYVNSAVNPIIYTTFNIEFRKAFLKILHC
T8 sequence (P31389 whole entry): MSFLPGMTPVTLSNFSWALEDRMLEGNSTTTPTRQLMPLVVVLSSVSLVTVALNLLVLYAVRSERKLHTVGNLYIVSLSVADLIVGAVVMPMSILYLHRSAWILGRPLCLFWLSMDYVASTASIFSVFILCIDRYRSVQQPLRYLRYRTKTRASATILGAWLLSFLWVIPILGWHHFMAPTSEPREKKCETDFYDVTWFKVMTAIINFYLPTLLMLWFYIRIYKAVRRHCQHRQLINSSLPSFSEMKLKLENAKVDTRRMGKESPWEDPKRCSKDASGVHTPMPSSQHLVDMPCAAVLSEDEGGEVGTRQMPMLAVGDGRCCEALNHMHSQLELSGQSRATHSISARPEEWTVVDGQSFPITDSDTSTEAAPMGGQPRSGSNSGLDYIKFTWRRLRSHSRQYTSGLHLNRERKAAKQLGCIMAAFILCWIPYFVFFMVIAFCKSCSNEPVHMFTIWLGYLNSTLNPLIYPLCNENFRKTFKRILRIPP

Compound: CCOC(=O)c1c(NC(=O)NS(=O)(=O)c2ccccc2Cl)sc2c1CCCC2 [Compound 101]
- IC50 (Edg-1): > 20 µM
- inhibition of S1P-stimulated calcium increases, Edg-1 (Edg-1; [4]): did not inhibit
- IC50 (Edg-3): > 20 µM
- inhibition of S1P-stimulated calcium increases, Edg-3 (Edg-3; [4]): did not inhibit
- IC50 (Edg-4): > 20 µM
- inhibition of LPA-stimulated calcium increases, Edg-4 (Edg-4; [4]): did not inhibit
- IC50 (Edg-5): > 20 µM
- inhibition of S1P-stimulated calcium increases, Edg-5 (Edg-5; [4]): did not inhibit
- IC50 (Edg-6): > 20 µM
- inhibition of S1P-stimulated calcium increases, Edg-6 (Edg-6; [4]): did not inhibit
- IC50 (Edg-8): > 20 µM
- inhibition of S1P-stimulated calcium increases, Edg-8 (Edg-8; [4]): did not inhibit
- activity in radioligand binding assay, Adrenergic Alpha 1, non-selective [1]: no significant activity
- activity in radioligand binding assay, Adrenergic Alpha 2, non-selective (Adrenergic α2): no significant activity
- activity in radioligand binding assay, Adrenergic Beta, non-selective (Adrenergic β): no significant activity
- activity in radioligand binding assay, Calcium Channels Type L, DHP [2]: no significant activity
- activity in radioligand binding assay, Dopamine D2L (Dopamine D2L): no significant activity
- activity in radioligand binding assay, Endothelin ETA (Endothelin ETA): no significant activity
- activity in radioligand binding assay, H1 central (Histamine H1, Central): no significant activity
- activity in radioligand binding assay, Muscarinic, non-selective, central [3]: no significant activity
- melting point: 222 to 225 °C
